Laboratory results as given in PubChem BioAssay AID248 (DTP/NCI, 2004).
Inconclusive results and toxic doses are left out. Rule as the data show it: active = T/C of 150% or more; inactive = T/C below 125%.

Tested on: L1210 leukemia ip in BDF1 mice, survival T/C
Assay: NCI In Vivo Anticancer Drug Screen. Data for tumor model L1210 Leukemia (intraperitoneal) in B6D2F1 (BDF1) mice
Conditions: endpoint: mean survival time, higher = longer survival
In short: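 Transplanted-tumor mice were given test agent; controls received vehicle only. Survival readings from the two groups were divided (treated over control).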

[1] = dose: 100.0 mg/kg/injection, schedule: Q01DX001 (ip), vehicle: saline
[2] = dose: 200.0 mg/kg/injection, schedule: Q01DX001 (ip), vehicle: saline
[3] = dose: 400.0 mg/kg/injection, schedule: Q01DX001 (ip), vehicle: saline
[4] = dose: 100.0 mg/kg/injection, schedule: Q01DX001 (ip), vehicle: carboxymethylcellulose (CMC)
[5] = dose: 200.0 mg/kg/injection, schedule: Q01DX001 (ip), vehicle: carboxymethylcellulose (CMC)
[6] = dose: 400.0 mg/kg/injection, schedule: Q01DX001 (ip), vehicle: carboxymethylcellulose (CMC)
[7] = dose: 100.0 mg/kg/injection, schedule: Q01DX001 (ip), vehicle: Klucel (hydroxypropylcellulose) (HPC)
[8] = dose: 100.0 mg/kg/injection, schedule: Q04DX003 (ip), vehicle: Klucel (hydroxypropylcellulose) (HPC)
[9] = dose: 200.0 mg/kg/injection, schedule: Q01DX001 (ip), vehicle: Klucel (hydroxypropylcellulose) (HPC)
[10] = dose: 200.0 mg/kg/injection, schedule: Q04DX003 (ip), vehicle: Klucel (hydroxypropylcellulose) (HPC)
[11] = dose: 400.0 mg/kg/injection, schedule: Q01DX001 (ip), vehicle: Klucel (hydroxypropylcellulose) (HPC)
[12] = dose: 400.0 mg/kg/injection, schedule: Q04DX003 (ip), vehicle: Klucel (hydroxypropylcellulose) (HPC)
[13] = dose: 100.0 mg/kg/injection, schedule: Q04DX003 (ip), vehicle: saline
[14] = dose: 200.0 mg/kg/injection, schedule: Q01DX009 (ip), vehicle: acetone
[15] = dose: 200.0 mg/kg/injection, schedule: Q04DX003 (ip), vehicle: saline
[16] = dose: 400.0 mg/kg/injection, schedule: Q04DX003 (ip), vehicle: saline
[17] = dose: 100.0 mg/kg/injection, schedule: Q04DX002 (ip), vehicle: Klucel (hydroxypropylcellulose) (HPC)
[18] = dose: 200.0 mg/kg/injection, schedule: Q04DX002 (ip), vehicle: Klucel (hydroxypropylcellulose) (HPC)
[19] = dose: 400.0 mg/kg/injection, schedule: Q04DX002 (ip), vehicle: Klucel (hydroxypropylcellulose) (HPC)
[20] = dose: 50.0 mg/kg/injection, schedule: Q01DX001 (ip), vehicle: carboxymethylcellulose (CMC)
[21] = dose: 100.0 mg/kg/injection, schedule: Q01DX009 (ip), vehicle: Klucel (hydroxypropylcellulose) (HPC)
[22] = dose: 200.0 mg/kg/injection, schedule: Q01DX009 (ip), vehicle: Klucel (hydroxypropylcellulose) (HPC)

Measured: T/C

Cc1c(NC(=O)Nc2cccc(Cl)c2)nc(Br)c2ccccc12
inactive: dose: 100.0 mg/kg/injection, schedule: Q04DX002 (ip), vehicle: saline with Tween-80 101 % of control | dose: 200.0 mg/kg/injection, schedule: Q04DX002 (ip), vehicle: saline with Tween-80 96 % of control

CC(=O)NC(Cc1ccsc1)(C(=O)O)C(=O)O
inactive: [1] 93 % of control | [2] 98 % of control | [3] 98 % of control

NNC(=O)c1ccc(O)cc1
inactive: dose: 100.0 mg/kg/injection, schedule: Q04DX003 (ip), vehicle: saline with Tween-80 95 % of control | dose: 200.0 mg/kg/injection, schedule: Q04DX003 (ip), vehicle: saline with Tween-80 101 % of control | dose: 400.0 mg/kg/injection, schedule: Q04DX003 (ip), vehicle: saline with Tween-80 97 % of control

CN(C(=O)c1cc([N+](=O)[O-])ccc1O)c1ccc([N+](=O)[O-])cc1
inactive: [1] 97 % of control | [2] 95 % of control | [3] 97 % of control

O=c1oc2c(CN3CCCCC3)c(O)ccc2c2c1CCCC2
inactive: [4] 93 % of control | [5] 96 % of control | [6] 93 % of control

Cc1cc(C2C(O)C(c3cc(C)on3)C2(C)O)no1 (configuration not stated)
inactive: [7] 98 % of control | [8] 103 % of control | [9] 98 % of control | [10] 97 % of control | [11] 97 % of control | [12] 103 % of control

CC(=O)[C@@]1(O)CC[C@H]2[C@@H]3C[C@H](C)C4=CC(=O)CC[C@]4(C)[C@H]3[C@@H](O)C[C@@]21C
inactive: dose: 12.5 mg/kg/injection, schedule: Q04DX002 (ip), vehicle: Klucel (hydroxypropylcellulose) (HPC) 102 % of control | dose: 25.0 mg/kg/injection, schedule: Q04DX002 (ip), vehicle: Klucel (hydroxypropylcellulose) (HPC) 105 % of control | dose: 50.0 mg/kg/injection, schedule: Q04DX002 (ip), vehicle: Klucel (hydroxypropylcellulose) (HPC) 112 % of control | [1] 104 % of control | dose: 100.0 mg/kg/injection, schedule: Q01DX009 (ip), vehicle: acetone 97 % of control | [13] 104 % of control | [2] 100 % of control | [14] 92 % of control | [15] 102 % of control | [3] 91 % of control | dose: 400.0 mg/kg/injection, schedule: Q01DX009 (ip), vehicle: acetone 97 % of control | [16] 95 % of control

O=C(O)c1cc2ccccc2c(Br)c1O.OC1CCCC2CCC[N-]C12.[Cu+]
inactive: dose: 4.0 mg/kg/injection, schedule: Q01DX015 (sc), vehicle: steriod suspending solution 97 % of control | dose: 16.0 mg/kg/injection, schedule: Q01DX015 (sc), vehicle: steriod suspending solution 103 % of control | dose: 32.0 mg/kg/injection, schedule: Q01DX015 (sc), vehicle: steriod suspending solution 100 % of control | dose: 50.0 mg/kg/injection, schedule: Q01DX001 (sc), vehicle: steriod suspending solution 98 % of control | dose: 100.0 mg/kg/injection, schedule: Q01DX001 (sc), vehicle: steriod suspending solution 111 % of control

CNCCCC1c2ccccc2C=Cc2ccccc21
inactive: dose: 3.12 mg/kg/injection, schedule: Q01DX009 (ip), vehicle: saline 100 % of control | dose: 6.25 mg/kg/injection, schedule: Q01DX009 (ip), vehicle: saline 96 % of control | dose: 12.5 mg/kg/injection, schedule: Q01DX009 (ip), vehicle: saline 101 % of control | dose: 25.0 mg/kg/injection, schedule: Q01DX009 (ip), vehicle: saline 100 % of control | dose: 25.0 mg/kg/injection, schedule: Q04DX003 (ip), vehicle: saline 90 % of control | dose: 50.0 mg/kg/injection, schedule: Q04DX003 (ip), vehicle: saline 101 % of control

Cc1ccc(C(=O)/C=C/c2ccc3c(c2)OCO3)c(C)c1
inactive: dose: 100.0 mg/kg/injection, schedule: Q04DX002 (ip), vehicle: DMSO 103 % of control | dose: 200.0 mg/kg/injection, schedule: Q04DX002 (ip), vehicle: DMSO 93 % of control | dose: 400.0 mg/kg/injection, schedule: Q04DX002 (ip), vehicle: DMSO 103 % of control

COc1ccc(NC(=S)Nc2ccccc2)c(Cl)c1
inactive: [17] 105 % of control | [18] 97 % of control | [19] 108 % of control

CCN(C)c1cc2c3c(c1)CCCN3CCC2
inactive: dose: 5.0 mg/kg/injection, schedule: Q01DX009 (ip), vehicle: saline 103 % of control

COC1=C(OC)C(=O)c2c(c(=O)c3ccccc3n2C)C1=O
inactive: dose: 25.0 mg/kg/injection, schedule: Q01DX001 (ip), vehicle: carboxymethylcellulose (CMC) 104 % of control | [20] 95 % of control | [4] 101 % of control

O=C(Nc1cccc(Cl)c1)Nc1ccc(Br)c(C(F)(F)F)c1
inactive: [20] 100 % of control | [4] 94 % of control | [5] 96 % of control | [6] 94 % of control

Cc1ccncc1C#N
inactive: dose: 6.0 mg/kg/injection, schedule: Q04DX003 (ip), vehicle: saline 98 % of control | dose: 12.0 mg/kg/injection, schedule: Q04DX003 (ip), vehicle: saline 98 % of control | dose: 24.0 mg/kg/injection, schedule: Q04DX003 (ip), vehicle: saline 98 % of control

Nc1ccc(Nc2ccc([N+](=O)[O-])cc2)cc1
inactive: dose: 75.0 mg/kg/injection, schedule: Q01DX009 (ip), vehicle: Klucel (hydroxypropylcellulose) (HPC) 91 % of control | dose: 150.0 mg/kg/injection, schedule: Q01DX009 (ip), vehicle: Klucel (hydroxypropylcellulose) (HPC) 105 % of control | dose: 300.0 mg/kg/injection, schedule: Q01DX009 (ip), vehicle: Klucel (hydroxypropylcellulose) (HPC) 100 % of control

Cc1ccc(-n2c(O)c(N=Nc3ccc(Br)cc3)c(=O)n(-c3ccc(Br)cc3)c2=S)cc1
inactive: dose: 50.0 mg/kg/injection, schedule: Q01DX001 (ip), vehicle: Klucel (hydroxypropylcellulose) (HPC) 100 % of control | [7] 109 % of control | [9] 106 % of control

C=CCN1C(=O)NC(=O)C1c1ccsc1 (configuration not stated)
inactive: [1] 90 % of control | [2] 93 % of control | [3] 93 % of control

COc1cc(N=CN(C)C)cc(OC)c1OC
inactive: [21] 101 % of control | [8] 97 % of control | [22] 103 % of control | [10] 97 % of control | dose: 400.0 mg/kg/injection, schedule: Q01DX009 (ip), vehicle: Klucel (hydroxypropylcellulose) (HPC) 103 % of control | [12] 93 % of control

Cc1c(/C=N/NC(=O)CCCC(=O)N/N=C/c2c(C)n(C)n(-c3ccccc3)c2=O)c(=O)n(-c2ccccc2)n1C
inactive: dose: 50.0 mg/kg/injection, schedule: Q01DX001 (ip), vehicle: saline 102 % of control | [1] 93 % of control

Cc1nc2ccccc2c2ccccc12
inactive: dose: 50.0 mg/kg/injection, schedule: Q01DX009 (ip), vehicle: Klucel (hydroxypropylcellulose) (HPC) 111 % of control | [21] 105 % of control | [22] 111 % of control

CN(CCCN1C(=O)c2ccccc2C1=O)c1ccc(NS(=O)(=O)c2ccc([N+](=O)[O-])cc2)cc1
inactive: [7] 100 % of control | [9] 103 % of control | [11] 97 % of control

CCOC(=O)c1cnc(SC)nc1Nc1ccccc1I
inactive: [8] 101 % of control | [10] 97 % of control | [12] 103 % of control

Br/C=C\c1ccccc1
inactive: dose: 50.0 mg/kg/injection, schedule: Q01DX009 (ip), vehicle: acetone 86 % of control | dose: 100.0 mg/kg/injection, schedule: Q01DX009 (ip), vehicle: saline 107 % of control | [13] 97 % of control | [14] 95 % of control | [15] 94 % of control | [16] 98 % of control

CN(C(=O)/C=C\c1ccccc1)c1ccccc1
inactive: [17] 104 % of control | [18] 104 % of control | [19] 104 % of control

N#CCC(N)=S
inactive: dose: 25.0 mg/kg/injection, schedule: Q04DX002 (ip), vehicle: gum acacia 120 % of control | dose: 50.0 mg/kg/injection, schedule: Q04DX002 (ip), vehicle: gum acacia 109 % of control
